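Where inhibition never reached the appropriate level, the endpoint shown equals the highest concentration tested. Otherwise, values were interpolated linearly from a five-concentration, 48-hour dose response in 96-well plates. GI50 is the concentration that inhibits growth by half.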 Active and inactive are the calls of the source. No stated cut-off is given here; in the data, active = GI50 up to about 1.1 µM and inactive = higher.
Columns and labels:
Assay in all cases: DTP human tumour cell line panel, 48 h
LOX IMVI = tested on: LOX IMVI
KM12 = tested on: KM12
UACC-62 = tested on: UACC-62
OVCAR-3 = tested on: OVCAR-3
MDA-MB-435 = tested on: MDA-MB-435
A549 = tested on: A549
OVCAR-8 = tested on: OVCAR-8
SF-268 = tested on: SF-268
786-0 = tested on: 786-0
COLO 205 = tested on: COLO 205
U-251 = tested on: U-251
HT-29 = tested on: HT-29
NCI-H23 = tested on: NCI-H23
SK-OV-3 = tested on: SK-OV-3
MDA-MB-231 = tested on: MDA-MB-231
MOLT-4 = tested on: MOLT-4
EKVX = tested on: EKVX
CAKI-1 = tested on: CAKI-1
HCT-116 = tested on: HCT-116

Measured: GI50

CC(=O)Oc1ccc2c(C)cc(=O)oc2c1
inactive: LOX IMVI > 100 µM | KM12 > 100 µM | UACC-62 > 100 µM | OVCAR-3 > 100 µM | MDA-MB-435 > 100 µM | A549 > 100 µM | OVCAR-8 > 100 µM | SF-268 > 100 µM | 786-0 > 100 µM | COLO 205 > 100 µM | U-251 > 100 µM | HT-29 > 100 µM | NCI-H23 > 100 µM | SK-OV-3 > 100 µM | MDA-MB-231 > 100 µM | MOLT-4 > 100 µM | EKVX > 100 µM | CAKI-1 > 100 µM | HCT-116 > 100 µM

CCOC(=O)[C@@H](Cc1ccc(CCl)cc1)NC(C)=O
inactive: LOX IMVI 19 µM | KM12 20.2 µM | UACC-62 15.9 µM | OVCAR-3 30.1 µM | MDA-MB-435 19.9 µM | A549 97.1 µM | OVCAR-8 50.8 µM | SF-268 24 µM | 786-0 19.1 µM | COLO 205 18.1 µM | U-251 19.6 µM | HT-29 75.3 µM | NCI-H23 25 µM | SK-OV-3 98.2 µM | MDA-MB-231 27.1 µM | MOLT-4 29.2 µM | EKVX 22.2 µM | CAKI-1 25.6 µM | HCT-116 30.3 µM

O=C1/C(=C\c2c(-c3ccccc3)[nH]n(-c3ccccc3)c2=O)C(c2ccccc2)=NN1c1ccccc1
inactive: LOX IMVI > 100 µM | KM12 > 100 µM | UACC-62 > 100 µM | OVCAR-3 > 100 µM | MDA-MB-435 > 100 µM | A549 > 100 µM | OVCAR-8 > 100 µM | SF-268 > 100 µM | 786-0 > 100 µM | COLO 205 > 100 µM | U-251 > 100 µM | HT-29 > 100 µM | NCI-H23 > 100 µM | SK-OV-3 > 100 µM | MDA-MB-231 > 100 µM | MOLT-4 > 100 µM | EKVX > 100 µM | CAKI-1 > 100 µM | HCT-116 > 100 µM

COc1ccc(P2(=S)Oc3ccc(C(c4ccccc4)(c4ccccc4)c4ccccc4)cc3O2)cc1 (stereo not given)
inactive: LOX IMVI 14.5 µM | KM12 15 µM | UACC-62 13.4 µM | OVCAR-3 16.9 µM | MDA-MB-435 16.4 µM | A549 16.6 µM | OVCAR-8 16 µM | SF-268 17.2 µM | 786-0 18 µM | COLO 205 20.2 µM | U-251 18 µM | HT-29 18.8 µM | NCI-H23 16.9 µM | SK-OV-3 23 µM | MDA-MB-231 21.2 µM | MOLT-4 19.6 µM | EKVX 20.2 µM | CAKI-1 19.1 µM | HCT-116 17.8 µM

Cn1c(=O)c2nc(CCCc3ccc([N+](=O)[O-])cc3)[nH]c2n(C)c1=O
inactive: LOX IMVI > 100 µM | KM12 > 100 µM | UACC-62 > 100 µM | OVCAR-3 > 100 µM | MDA-MB-435 > 100 µM | A549 > 100 µM | OVCAR-8 > 100 µM | SF-268 > 100 µM | 786-0 > 100 µM | COLO 205 > 100 µM | U-251 > 100 µM | HT-29 > 100 µM | NCI-H23 > 100 µM | SK-OV-3 > 100 µM | MDA-MB-231 > 100 µM | MOLT-4 56.6 µM | EKVX > 100 µM | CAKI-1 > 100 µM | HCT-116 > 100 µM

Cc1ccc(C(=O)N/N=C(\N=N\c2ccccc2[N+](=O)[O-])c2ccc(N(C)C)cc2)cc1
inactive: LOX IMVI > 100 µM | KM12 > 100 µM | UACC-62 17.4 µM | OVCAR-3 92 µM | MDA-MB-435 22.8 µM | A549 > 100 µM | OVCAR-8 > 100 µM | SF-268 > 100 µM | 786-0 > 100 µM | COLO 205 > 100 µM | U-251 > 100 µM | HT-29 > 100 µM | NCI-H23 > 100 µM | SK-OV-3 > 100 µM | MDA-MB-231 > 100 µM | MOLT-4 > 100 µM | EKVX > 100 µM | CAKI-1 > 100 µM | HCT-116 > 100 µM

CSc1ncnc2c1ncn2C1CC(Oc2ccc(C)cc2)C(COc2ccc(C)cc2)O1 (stereo not given)
inactive: LOX IMVI > 100 µM | KM12 > 100 µM | UACC-62 > 100 µM | OVCAR-3 > 100 µM | MDA-MB-435 > 100 µM | A549 > 100 µM | OVCAR-8 > 100 µM | SF-268 > 100 µM | 786-0 > 100 µM | COLO 205 > 100 µM | U-251 > 100 µM | HT-29 > 100 µM | NCI-H23 49.4 µM | SK-OV-3 > 100 µM | MDA-MB-231 > 100 µM | MOLT-4 6.1 µM | EKVX > 100 µM | CAKI-1 24.7 µM | HCT-116 > 100 µM

CCOC(=O)CCC(NC(=O)c1ccc(Nc2cnc3ccc(C(F)(F)F)cc3n2)cc1)C(=O)OCC (stereo not given)
inactive: LOX IMVI 36.7 µM | KM12 24.2 µM | UACC-62 20.6 µM | OVCAR-3 > 100 µM | MDA-MB-435 > 80.9 µM | A549 > 34.6 µM | OVCAR-8 8.81 µM | SF-268 15 µM | 786-0 10.5 µM | COLO 205 > 100 µM | U-251 11.6 µM | HT-29 > 80.5 µM | NCI-H23 35 µM | SK-OV-3 16.5 µM | MDA-MB-231 4.59 µM | MOLT-4 2.2 µM | EKVX 30.1 µM | CAKI-1 12 µM | HCT-116 14.5 µM

N#CC(=S)Nc1cccc(Cl)c1
inactive: LOX IMVI 39.3 µM | KM12 24.8 µM | UACC-62 19 µM | OVCAR-3 16 µM | MDA-MB-435 33.1 µM | A549 23.8 µM | OVCAR-8 32.3 µM | SF-268 40.5 µM | 786-0 40.5 µM | COLO 205 36.1 µM | U-251 34.8 µM | HT-29 19.5 µM | NCI-H23 31.4 µM | SK-OV-3 33.3 µM | MDA-MB-231 38.4 µM | MOLT-4 34 µM | EKVX 41.1 µM | CAKI-1 41.9 µM | HCT-116 55.3 µM

CC1(C)[C@H]2Cc3cc4nc5ccccn5c4cc3[C@@H]1C2
inactive: LOX IMVI 19.6 µM | KM12 18.6 µM | UACC-62 15.6 µM | OVCAR-3 17.5 µM | MDA-MB-435 15.3 µM | A549 16.4 µM | OVCAR-8 14.6 µM | SF-268 17.6 µM | 786-0 17.2 µM | COLO 205 18.4 µM | U-251 15.7 µM | HT-29 14.1 µM | NCI-H23 17 µM | SK-OV-3 17.3 µM | MDA-MB-231 13 µM | MOLT-4 27.1 µM | EKVX 15.9 µM | CAKI-1 14.1 µM | HCT-116 17.5 µM
